Measurements as given in US12144795B2, “Cannabidiol compositions having modified cannabinoid profiles” (priority 2018, dated 2024).

Test: Stability studies of CBD prepared via Protocol 3 (crude, pure, 2x recrystallized; 5° C., 25° C./60% RH, 40° C./75% RH)
Type: physicochemical

With `C=C(C)[C@@H]1CCC(C)=C[C@H]1c1c(O)cc(CCCCC)cc1O` [Pure CBD (Recrystallized Twice)] the “Related substances by HPLC (low level): Δ9-Tetrahydrocannabinol” value (25° C./60% RH, 0 month) was 11 ppm, the “Water content in % w/w” value (25° C./60% RH, 0 month) was under 0.05% and the Appearance (25° C./60% RH, 1 month) was “Off-White”. The “Assay by HPLC” value (25° C./60% RH, 1 month) was 100.2%, the Each unspecified impurity (25° C./60% RH, 1 month) was <0.03% (ND) and the “Related substances by HPLC (low level): Δ8-Tetrahydrocannabinol” value (25° C./60% RH, 1 month) was 9 ppm. For the same molecule, the “Related substances by HPLC (low level): Δ9-Tetrahydrocannabinol” value (25° C./60% RH, 1 month) was 6 ppm, the “Related substances by HPLC: 4-Monobromo-CBD” value (25° C./60% RH, 1 month) was <0.03% (ND) and the “Related substances by HPLC: Olivetol” value (25° C./60% RH, 1 month) was <0.03% (ND). For the same molecule, the “Related substances by HPLC: Sum of impurities, ≥0.05%” value (“Related substances by HPLC … ≥0.05%” for short) (25° C./60% RH, 1 month) was <0.05% (ND), the “Related substances by HPLC: Δ8-Tetrahydrocannabinol” value (25° C./60% RH, 1 month) was <0.02% (ND) and the “Related substances by HPLC: Δ9-Tetrahydrocannabinol” value (25° C./60% RH, 1 month) was <0.02% (ND). The Appearance (25° C./60% RH, 2 months) was “Oft-White”, the “Assay by HPLC” value (25° C./60% RH, 2 months) was 99.9% and the Each unspecified impurity (25° C./60% RH, 2 months) was <0.03% (ND). The “Related substances by HPLC (low level): Δ8-Tetrahydrocannabinol” value (25° C./60% RH, 2 months) was 7 ppm, the “Related substances by HPLC (low level): Δ9-Tetrahydrocannabinol” value (25° C./60% RH, 2 months) was 4 ppm and the “Related substances by HPLC: 4-Monobromo-CBD” value (25° C./60% RH, 2 months) was <0.03% (ND). The “Related substances by HPLC: Olivetol” value (25° C./60% RH, 2 months) was <0.03% (ND), the “Related substances by HPLC … ≥0.05%” value (25° C./60% RH, 2 months) was <0.05% (ND) and the “Related substances by HPLC: Δ8-Tetrahydrocannabinol” value (25° C./60% RH, 2 months) was <0.02% (ND). The “Related substances by HPLC: Δ9-Tetrahydrocannabinol” value (25° C./60% RH, 2 months) was <0.02% (ND), the Appearance (25° C./60% RH, 3 months) was “White” and the “Assay by HPLC” value (25° C./60% RH, 3 months) was 98.4%. The “Each unspecified impurity: RRT~1.980” value (25° C./60% RH, 3 months) was “RRT~1.980: 0.03%”, the “Related substances by HPLC (low level): Δ8-Tetrahydrocannabinol” value (25° C./60% RH, 3 months) was 13 ppm and the “Related substances by HPLC (low level): Δ9-Tetrahydrocannabinol” value (25° C./60% RH, 3 months) was under 4 ppm. The “Related substances by HPLC: 4-Monobromo-CBD” value (25° C./60% RH, 3 months) was <0.03% (ND), the “Related substances by HPLC: Olivetol” value (25° C./60% RH, 3 months) was <0.03% (ND) and the “Related substances by HPLC … ≥0.05%” value (25° C./60% RH, 3 months) was under 0.05%. For the same molecule, the “Related substances by HPLC: Δ8-Tetrahydrocannabinol” value (25° C./60% RH, 3 months) was <0.02% (ND), the “Related substances by HPLC: Δ9-Tetrahydrocannabinol” value (25° C./60% RH, 3 months) was <0.02% (ND) and the “Related substances by HPLC (low level): Δ9-Tetrahydrocannabinol” value (40° C./75% RH, 0 month) was 11 ppm. The “Water content in % w/w” value (40° C./75% RH, 0 month) was under 0.05%, the Appearance (40° C./75% RH, 1 month) was “Off-White” and the “Assay by HPLC” value (40° C./75% RH, 1 month) was 99.5%. For the same molecule, the Each unspecified impurity (40° C./75% RH, 1 month) was <0.03% (ND), the “Related substances by HPLC (low level): Δ8-Tetrahydrocannabinol” value (40° C./75% RH, 1 month) was 6 ppm and the “Related substances by HPLC (low level): Δ9-Tetrahydrocannabinol” value (40° C./75% RH, 1 month) was 4 ppm. The “Related substances by HPLC: 4-Monobromo-CBD” value (40° C./75% RH, 1 month) was <0.03% (ND), the “Related substances by HPLC: Olivetol” value (40° C./75% RH, 1 month) was <0.03% (ND) and the “Related substances by HPLC … ≥0.05%” value (40° C./75% RH, 1 month) was <0.05% (ND). For the same molecule, the “Related substances by HPLC: Δ8-Tetrahydrocannabinol” value (40° C./75% RH, 1 month) was <0.02% (ND), the “Related substances by HPLC: Δ9-Tetrahydrocannabinol” value (40° C./75% RH, 1 month) was <0.02% (ND) and the Appearance (40° C./75% RH, 2 months) was “Off-White”. For the same molecule, the “Assay by HPLC” value (40° C./75% RH, 2 months) was 101.7%, the Each unspecified impurity (40° C./75% RH, 2 months) was <0.03% (ND) and the “Related substances by HPLC (low level): Δ8-Tetrahydrocannabinol” value (40° C./75% RH, 2 months) was 6 ppm. For the same molecule, the “Related substances by HPLC (low level): Δ9-Tetrahydrocannabinol” value (40° C./75% RH, 2 months) was <4 ppm (3 ppm), the “Related substances by HPLC: 4-Monobromo-CBD” value (40° C./75% RH, 2 months) was <0.03% (ND) and the “Related substances by HPLC: Olivetol” value (40° C./75% RH, 2 months) was <0.03% (ND). The “Related substances by HPLC … ≥0.05%” value (40° C./75% RH, 2 months) was <0.05% (ND), the “Related substances by HPLC: Δ8-Tetrahydrocannabinol” value (40° C./75% RH, 2 months) was <0.02% (ND) and the “Related substances by HPLC: Δ9-Tetrahydrocannabinol” value (40° C./75% RH, 2 months) was <0.02% (ND). The Appearance (40° C./75% RH, 3 months) was “Off-white”, the “Assay by HPLC” value (40° C./75% RH, 3 months) was 99.4% and the “Each unspecified impurity: RRT~1.981” value (40° C./75% RH, 3 months) was 0.03%. The “Related substances by HPLC (low level): Δ8-Tetrahydrocannabinol” value (40° C./75% RH, 3 months) was 14 ppm, the “Related substances by HPLC (low level): Δ9-Tetrahydrocannabinol” value (40° C./75% RH, 3 months) was under 4 ppm and the “Related substances by HPLC: 4-Monobromo-CBD” value (40° C./75% RH, 3 months) was <0.03% (ND). For the same molecule, the “Related substances by HPLC: Olivetol” value (40° C./75% RH, 3 months) was <0.03% (ND), the “Related substances by HPLC … ≥0.05%” value (40° C./75% RH, 3 months) was under 0.05% and the “Related substances by HPLC: Δ8-Tetrahydrocannabinol” value (40° C./75% RH, 3 months) was <0.02% (ND). The “Related substances by HPLC: Δ9-Tetrahydrocannabinol” value (40° C./75% RH, 3 months) was <0.02% (ND), the Appearance (40° C./75% RH, 5 months) was “Off-white” and the “Assay by HPLC” value (40° C./75% RH, 5 months) was 98.9%. The “Each unspecified impurity: RRT~0.956” value (40° C./75% RH, 5 months) was 0.04%, the “Related substances by HPLC (low level): Δ8-Tetrahydrocannabinol” value (40° C./75% RH, 5 months) was 21 ppm and the “Related substances by HPLC (low level): Δ9-Tetrahydrocannabinol” value (40° C./75% RH, 5 months) was under 4 ppm. The “Related substances by HPLC: 4-Monobromo-CBD” value (40° C./75% RH, 5 months) was <0.03% (ND), the “Related substances by HPLC: Olivetol” value (40° C./75% RH, 5 months) was <0.03% (ND) and the “Related substances by HPLC … ≥0.05%” value (40° C./75% RH, 5 months) was under 0.05%. For the same molecule, the “Related substances by HPLC: Δ8-Tetrahydrocannabinol” value (40° C./75% RH, 5 months) was <0.02% (ND) and the “Related substances by HPLC: Δ9-Tetrahydrocannabinol” value (40° C./75% RH, 5 months) was <0.02% (ND).
